{
  "source": "patent US20140093588A1",
  "about": "(Fred Hutchinson Cancer Research Center, priority 2006, published 2014)",
  "key": {"Murine J774 macrophages": {"tested_on": "Murine J774 macrophages", "test": "Cell viability (MTT reduction) of macrophages treated with GSNO or ONOO— after sulfide pretreatment", "assay_type": "cell-based", "conditions": "H2S tested on cells to define the highest tested concentration that would reduce viability", "experimental": "Cells were cultured in 96-well plates until cells reached confluence essentially as described in C.\nCell respiration, an indicator of cell viability, was assessed by the mitochondrial-dependent reduction of MTT to formazen (Gross and Levi, 1992). Cells in 96-well plates were incubated at 37° C. with MTT (0.2 mg/ml for 60 min). Culture medium was removed by aspiration, and the cells were solubilized in DMSO. The extent of reduction of MTT to formazan within cells was quantitated by OD550 measurement.\nH2S was tested on cells to define the highest tested concentration that would reduce viability. […] Following pretreatment, cells were treated with GSNO (1 mM, 3 mM, or 10 mM). Cell viability was measured at three hours.\nFollowing pretreatment, ONOO— was added at concentrations of 0.3 mM, 0.6 mM, or 1 mM. Cell viability was measured at three hours.\nThree hours after treatment, cell viability was measured.\nIn a related experiment, Murine J774 macrophages were grown until confluency in 96 well plates. Cells were pretreated with H2S (30 mM, 60 mM, 100 mM, 1 mM) for 30 minutes or 24 hours, then cells were incubated with GSNO or ONOO— for 3 hours. GSNO was used in 1 mM and 3 mM concentrations, while ONOO— was used in 300 mM concentration. Following treatment, cells were incubated for 20 minutes with fresh media containing 0.05% MTT. […] Optical density was measured at 550 nm."}, "[1]": {"conditions": "at STP; cited from earlier work"}, "[2]": {"tested_on": "LPS-induced IL-1 and TNF production", "test": "Bacterial lipopolysaccharide endotoxemia in mice, IL-1β and TNFα plasma levels by ELISA", "assay_type": "in vivo, C57/BI6 mice", "conditions": "Tin-protoporphyrin IX 6 mg/kg ip, 30 min before Alzet H2S treatment", "description": "Four groups of C57/BI6 mice were subjected to bacterial lipopolysaccharide (5 mg/kg ip). Three groups received H2S treatment (0.2 mg/kg/hr, 4 hrs), and a control group received saline using Alzet osmotic minipumps 30 minutes prior to the induction of endotoxemia (n=7−10/group) in both cases. The effect of the heme oxygenase inhibitor tin-protoporphyrin IX (6 mg/kg, ip, 30 min earlier to Alzet treatment) was also examined in two groups. After 4 hours, the animals were anesthetized using pentobarbital (60 mg/kg ip) and blood samples were taken. IL-1β and TNFα plasma levels were measured using a commercially available ELISA kit (R&D Systems)."}, "[3]": {"conditions": "cited from earlier work"}},
  "data": [
    {"smiles": "S", "note": "[H2S, hydrogen sulfide]", "values": [
      {"measurement": "concentration that may confer a protective effect", "setting": "Murine J774 macrophages", "result": 1, "unit": "mM"}
    ]},
    {"smiles": "[N]=O", "note": "[NO, nitric oxide]", "values": [
      {"measurement": "soluble in water up to a concentration", "setting": "[1]", "result": "about 2 mM"}
    ]},
    {"smiles": "C=Cc1c2[n-]c(c1C)/C=c1\\[n-]/c(c(C)c1C=C)=C\\c1[n-]c(c(CCC(=O)O)c1C)C=c1[n-]/c(c(C)c1CCC(=O)O)=C\\2.[Sn+4]", "note": "[Tin-protoporphyrin IX, tin-protoporphyrin IX]", "values": [
      {"measurement": "effect of H2S on IL-1 after pretreatment with the heme oxygenase inhibitor", "setting": "[2]", "result": "attenuated"}
    ]},
    {"smiles": "O=NOO", "note": "[peroxynitrite]", "values": [
      {"measurement": "half-life", "setting": "[3]", "result": "~1", "unit": "s"}
    ]}
  ]
}
